The results in this text go back to ChEMBL document CHEMBL1130672, “Evaluation of a structure-based statine cyclic diamino amide encoded combinatorial library against plasmepsin II and cathepsin D” (Bioorg Med Chem Lett, 1998).

For one assay, the target named is Cathepsin D (Homo sapiens, UniProt P07339). The assay can be described thus: Compound was tested for inhibitory activity against cathepsin D.
The target of a further assay is Plasmepsin II (Plasmodium falciparum, UniProt P46925). Nature of the assay: Inhibitory activity against plasmepsin-2.
In a further assay the test system is Plasmodium falciparum. The assay can be described thus: Inhibitory concentration for Plasmodium falciparum culture. In kind it is functional, organism-based.

Cathepsin D, sequence (P07339 65-162 limits assumed): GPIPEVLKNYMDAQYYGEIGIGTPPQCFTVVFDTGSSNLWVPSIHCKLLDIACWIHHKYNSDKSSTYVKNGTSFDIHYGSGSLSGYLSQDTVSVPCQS
Cathepsin D, sequence (P07339 169-412 limits assumed): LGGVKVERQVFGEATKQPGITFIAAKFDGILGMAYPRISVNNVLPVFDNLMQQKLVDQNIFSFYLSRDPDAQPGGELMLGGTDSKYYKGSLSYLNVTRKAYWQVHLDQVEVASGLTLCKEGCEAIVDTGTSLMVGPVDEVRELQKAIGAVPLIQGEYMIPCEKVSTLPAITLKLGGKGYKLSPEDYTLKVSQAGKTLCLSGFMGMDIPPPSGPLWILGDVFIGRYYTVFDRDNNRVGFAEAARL
Plasmepsin II, sequence (P46925 whole entry): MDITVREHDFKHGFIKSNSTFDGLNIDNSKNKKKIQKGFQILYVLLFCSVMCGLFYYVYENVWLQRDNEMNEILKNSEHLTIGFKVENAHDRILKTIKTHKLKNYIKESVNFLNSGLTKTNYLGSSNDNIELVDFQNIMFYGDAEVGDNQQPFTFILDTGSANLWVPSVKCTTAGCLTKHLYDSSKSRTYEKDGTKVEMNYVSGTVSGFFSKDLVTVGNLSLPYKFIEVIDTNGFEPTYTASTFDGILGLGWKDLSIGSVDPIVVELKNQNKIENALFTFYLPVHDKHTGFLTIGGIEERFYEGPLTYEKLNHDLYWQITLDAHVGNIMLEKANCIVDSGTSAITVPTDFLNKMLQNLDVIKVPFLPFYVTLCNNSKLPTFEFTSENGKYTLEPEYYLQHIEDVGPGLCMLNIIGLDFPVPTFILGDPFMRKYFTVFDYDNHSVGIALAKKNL

Broadly, the Ki is the equilibrium dissociation constant of an inhibitor or competing ligand from its target. A lower Ki goes with tighter binding. A word on the IC50: it is the midpoint of a concentration-inhibition curve. Read a high IC50 as lower potency. In the case of `CCCCNC(=O)C[C@H](O)[C@H](Cc1ccccc1)NC(=O)CC1CN(Cc2cc(OC)c(OC)c(OC)c2)CCN1C(=O)c1ccc(OC(C)C)cc1` (some centres undefined), the inhibition constant Ki on Cathepsin D was 5.3 µM. In addition, the IC50 against Plasmepsin II was around 40 µM.

For `CCCCNC(=O)C[C@H](O)[C@H](Cc1ccccc1)NC(=O)CC1CN(Cc2ccc(-c3ccccc3)cc2)CCN1C(=O)CC(CN)c1ccc(Cl)cc1` (some centres undefined), the results for the IC50 against Cathepsin D and with Plasmodium falciparum were around 45 µM and 3 µM, respectively. Also, the Ki at Plasmepsin II turned out to be 0.49 µM.

As for `CCCCNC(=O)C[C@H](O)[C@H](Cc1ccccc1)NC(=O)C1CN(C(=O)CCCCC(=O)OCC)CCN1C(=O)CCc1cc(OC)c(OC)c(OC)c1` (some centres undefined), on Cathepsin D, the affinity corresponds to a Ki of 1.1 µM. Moreover, the concentration for half-maximal inhibition (IC50) at Plasmepsin II is around 100 µM.

Consider `CCCCNC(=O)C[C@H](O)[C@H](Cc1ccccc1)NC(=O)C1CN(CCOCCc2ccccc2)CCN1C(=O)CCc1cc(OC)c(OC)c(OC)c1` (some centres undefined), for which affinity at Cathepsin D was put at a Ki of 1.8 µM. On Plasmepsin II, the IC50 is around 65 µM.
